Laboratory results reported in PMC7380166, “How to Study the Metabolism of New Psychoactive Substances for the Purpose of Toxicological Screenings—A Follow-Up Study Comparing Pooled Human Liver S9, HepaRG Cells, and Zebrafish Larvae” (Frontiers in Chemistry, 2020).

How the values were obtained:
zebrafish larvae = experiment: Zebrafish larvae exposure, metabolite identification by LC-HRMS/MS; conditions: for Absolute peak area, Zebrafish larvae [25 μM]: 25 μM 4F-MDMB-BINACA in medium, larvae 4 dpf, larvae extract, one replicate of n = 3, n.d. = not detected
CYP3A4 = target: T1, CYP3A4 (Homo sapiens, UniProt P08684); experiment: Monooxygenases activity screening, CYP3A4; type: in vitro ADME; set-up: key: +, detected; –: −, not detected; conditions: 25 μM 4F-MDMB-BINACA, 50 pmol/ml enzyme, 30 min, 37°C, duplicate
T1 construct: purchased Corning; host or cells: baculovirus-transfected insect cell microsomes (Supersomes)
T1 sequence (P08684 whole entry): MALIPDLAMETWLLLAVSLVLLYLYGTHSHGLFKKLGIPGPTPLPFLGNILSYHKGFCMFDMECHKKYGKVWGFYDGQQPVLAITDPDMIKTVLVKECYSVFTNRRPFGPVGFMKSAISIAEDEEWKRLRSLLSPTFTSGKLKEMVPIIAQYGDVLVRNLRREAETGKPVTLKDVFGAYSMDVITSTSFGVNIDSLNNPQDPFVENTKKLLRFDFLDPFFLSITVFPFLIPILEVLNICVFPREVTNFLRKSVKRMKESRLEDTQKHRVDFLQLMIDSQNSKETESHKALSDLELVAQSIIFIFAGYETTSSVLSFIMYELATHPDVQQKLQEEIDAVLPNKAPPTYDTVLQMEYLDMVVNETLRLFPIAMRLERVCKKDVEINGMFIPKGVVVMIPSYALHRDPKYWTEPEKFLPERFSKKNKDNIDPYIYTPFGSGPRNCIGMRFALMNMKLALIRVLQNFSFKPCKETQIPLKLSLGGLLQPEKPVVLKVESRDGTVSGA
Description: (§1) According to an established protocol (Wagmann et al., [2016]), the final volume per reaction tube was 50 μl with a final 4F-MDMB-BINACA concentration of 25 μM and enzyme concentrations of 50 pmol/ml for CYP1A2, CYP2A6, CYP2B6, CYP2C8, CYP2C9, CYP2C19, CYP2D6, CYP2E1, CYP3A4, and CYP3A5, respectively, or 0.25 mg protein/ml for FMO3. Furthermore, the reaction mixture contained 90 mM phosphate buffer (pH 7.4), superoxide dismutase (200 U/ml), isocitrate (5 mM), MgCl2 (5 mM), isocitrate dehydrogenase (0.5 U/ml), and NADP^+ (1.2 mM). The phosphate buffer was replaced with Tris buffer (90 mM) for incubations with CYP2A6 and CYP2C9 according to the manufacturer's recommendation. All incubations were performed at 37°C for 30 min and terminated by adding 50 μl of ice-cold acetonitrile. Afterwards, the mixtures were centrifuged at 18,407 × g for 5 min, 70 μl of the supernatants was transferred into autosampler vials, and 1 μl was injected onto the LC-HRMS/MS system. Positive control incubations were performed with pHLM (1 mg microsomal protein/ml), and negative controls without enzyme were prepared to identify non-metabolically formed compounds. All incubations were done in duplicate.

CYP2C8 = target: T2, CYP2C8 (Homo sapiens, UniProt P10632); experiment: Monooxygenases activity screening, CYP2C8; type: in vitro ADME; set-up: key: +, detected; –: −, not detected; conditions: 25 μM 4F-MDMB-BINACA, 50 pmol/ml enzyme, 30 min, 37°C, duplicate
T2 construct: purchased Corning; host or cells: baculovirus-transfected insect cell microsomes (Supersomes)
T2 sequence (P10632 1-490): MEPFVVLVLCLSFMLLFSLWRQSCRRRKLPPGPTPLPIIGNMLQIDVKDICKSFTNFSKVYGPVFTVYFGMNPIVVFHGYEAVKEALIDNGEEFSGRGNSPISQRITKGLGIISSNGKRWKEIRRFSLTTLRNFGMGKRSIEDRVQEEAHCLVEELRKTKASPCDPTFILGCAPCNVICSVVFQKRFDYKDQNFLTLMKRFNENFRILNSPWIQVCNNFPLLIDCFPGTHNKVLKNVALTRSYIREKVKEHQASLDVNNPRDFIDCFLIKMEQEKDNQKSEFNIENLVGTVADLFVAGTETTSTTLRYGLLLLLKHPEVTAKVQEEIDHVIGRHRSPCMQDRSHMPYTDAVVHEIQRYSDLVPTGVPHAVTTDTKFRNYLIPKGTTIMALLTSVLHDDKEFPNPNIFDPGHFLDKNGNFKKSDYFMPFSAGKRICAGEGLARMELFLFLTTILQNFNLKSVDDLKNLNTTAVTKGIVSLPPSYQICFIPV
Description: as §1

CYP2C19 = target: T3, CYP2C19 (Homo sapiens, UniProt P33261); experiment: Monooxygenases activity screening, CYP2C19; type: in vitro ADME; set-up: key: +, detected; –: −, not detected; conditions: 25 μM 4F-MDMB-BINACA, 50 pmol/ml enzyme, 30 min, 37°C, duplicate
T3 construct: purchased Corning; host or cells: baculovirus-transfected insect cell microsomes (Supersomes)
T3 sequence (P33261 whole entry): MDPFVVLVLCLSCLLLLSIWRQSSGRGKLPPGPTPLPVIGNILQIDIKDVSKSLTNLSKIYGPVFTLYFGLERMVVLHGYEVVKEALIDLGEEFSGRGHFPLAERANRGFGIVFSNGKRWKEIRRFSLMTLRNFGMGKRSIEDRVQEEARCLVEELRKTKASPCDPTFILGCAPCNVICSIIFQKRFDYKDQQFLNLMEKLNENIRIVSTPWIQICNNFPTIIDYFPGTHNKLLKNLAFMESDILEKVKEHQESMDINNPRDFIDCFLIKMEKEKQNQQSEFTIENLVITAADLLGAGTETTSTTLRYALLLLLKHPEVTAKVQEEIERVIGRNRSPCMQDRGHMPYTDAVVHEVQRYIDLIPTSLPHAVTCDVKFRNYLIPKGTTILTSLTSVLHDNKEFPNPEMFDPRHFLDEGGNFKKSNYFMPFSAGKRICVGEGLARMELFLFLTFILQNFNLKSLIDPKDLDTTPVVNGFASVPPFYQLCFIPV
Description: as §1

FMO3 = target: T4, FMO3 (Homo sapiens, UniProt P31513); experiment: Monooxygenases activity screening, FMO3; type: in vitro ADME; set-up: key: +, detected; –: −, not detected; conditions: 25 μM 4F-MDMB-BINACA, 0.25 mg protein/ml, 30 min, 37°C, duplicate
T4 construct: purchased Corning; host or cells: baculovirus-transfected insect cell microsomes (Supersomes)
T4 sequence (P31513 1-532): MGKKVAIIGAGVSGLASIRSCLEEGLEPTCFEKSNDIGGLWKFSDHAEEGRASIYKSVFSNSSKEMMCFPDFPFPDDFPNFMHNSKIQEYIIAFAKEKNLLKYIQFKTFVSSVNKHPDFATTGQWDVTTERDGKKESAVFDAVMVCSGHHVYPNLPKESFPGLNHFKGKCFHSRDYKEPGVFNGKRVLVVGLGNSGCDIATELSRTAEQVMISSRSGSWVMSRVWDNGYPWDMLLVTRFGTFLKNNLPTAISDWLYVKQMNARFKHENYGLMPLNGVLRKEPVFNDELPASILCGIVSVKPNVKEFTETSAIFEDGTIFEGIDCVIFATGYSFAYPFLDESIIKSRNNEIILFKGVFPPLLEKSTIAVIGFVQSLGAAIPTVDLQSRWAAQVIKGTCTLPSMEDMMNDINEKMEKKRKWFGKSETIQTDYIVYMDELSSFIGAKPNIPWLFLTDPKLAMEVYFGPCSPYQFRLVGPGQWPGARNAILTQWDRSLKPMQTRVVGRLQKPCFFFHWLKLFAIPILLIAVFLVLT
Description: as §1

With `COC(=O)C(NC(=O)c1nn(CCCCF)c2ccccc12)C(C)(C)C` (centres unmarked) [4F-MDMB-BINACA, methyl 2-[1-(4-fluorobutyl)-1H-indazole-3-carbonyl]amino-3,3-dimethylbutanoate] the “Absolute peak area, Zebrafish larvae [25 μM]” value (shortened to “Absolute peak area”) (zebrafish larvae; 24 h) was 2.89E+09, the “Number of phase I metabolites detected, Zebrafish larvae” value (zebrafish larvae; 25 μM in medium, 24 h) was 14 and the “Number of phase II metabolites detected, Zebrafish larvae” value (zebrafish larvae; 25 μM in medium, 24 h) was 4. The “Relative number of matches with the four most abundant signals in human plasma, Zebrafish larvae” value (zebrafish larvae; plasma, larvae exposed to 25 μM) was 100% and the “Relative number of matches with the four most abundant signals in human urine, Zebrafish larvae” value (zebrafish larvae; urine, larvae exposed to 25 μM) was 75%.
With `O=C(O)c1nn(CCCCF)c2ccccc12` [MB1] the “Detection of metabolite in incubation with CYP3A4” value (from here on “Detection … with CYP3A4”) (CYP3A4) was “–”, the “Detection of metabolite in incubation with CYP2C8” value (from here on “Detection … with CYP2C8”) (CYP2C8) was “–” and the “Detection of metabolite in incubation with CYP2C19” value (from here on “Detection … with CYP2C19”) (CYP2C19) was “–”. For the same molecule, the “Detection of metabolite in incubation with FMO3” value (shortened to “Detection … with FMO3”) (FMO3) was “–”.
`COC(=O)[C@@H](NC(=O)c1n[nH]c2ccccc12)C(C)(C)C` [MB4] was tested, and the “Detection … with CYP3A4” value (CYP3A4) was “+”, the “Detection … with CYP2C8” value (CYP2C8) was “–” and the “Detection … with CYP2C19” value (CYP2C19) was “+”. For the same molecule, the “Detection … with FMO3” value (FMO3) was “–” and the “Absolute peak area” value (zebrafish larvae; 24 h) was 7.45E+06.
With `CC(C)(C)C(NC(=O)c1nn(CCCCF)c2ccccc12)C(=O)O` (centres unmarked) [MB8] the “Detection … with CYP3A4” value (CYP3A4) was “–”, the “Detection … with CYP2C8” value (CYP2C8) was “–” and the “Detection … with CYP2C19” value (CYP2C19) was “–”. For the same molecule, the “Detection … with FMO3” value (FMO3) was “–” and the “Absolute peak area” value (zebrafish larvae; 24 h) was 1.73E+07.
`COC(=O)[C@@H](NC(=O)c1nn(CCCCO)c2ccccc12)C(C)(C)C` [MB11] was tested, and the “Detection … with CYP3A4” value (CYP3A4) was “–”, the “Detection … with CYP2C8” value (CYP2C8) was “+” and the “Detection … with CYP2C19” value (CYP2C19) was “–”. The “Detection … with FMO3” value (FMO3) was “–” and the “Absolute peak area” value (zebrafish larvae; 24 h) was 2.92E+06.
`COC(=O)[C@@H](NC(=O)c1nn(CCCCF)c2ccccc12)C(C)(C)CO` [MB16] was tested, and the “Detection … with CYP3A4” value (CYP3A4) was “–”, the “Detection … with CYP2C8” value (CYP2C8) was “–” and the “Detection … with CYP2C19” value (CYP2C19) was “–”. The “Detection … with FMO3” value (FMO3) was “–” and the “Absolute peak area” value (zebrafish larvae; 24 h) was 5.98E+06.
